Data reported in PubChem BioAssay AID2060500 (Molecular Pharmacology Branch, DTP, NCI, 2025).
Where “and” joins values, the source holds several entries; their conditions need not be identical. Equal values may be shown once.

Tested on: 596521-263-R-J1-PDC complex spheroids, viability % of control
Test: Anticancer human tumor 596521-263-R-J1-PDC patient-derived soft tissue sarcoma cell line growth inhibition [GQUAD]
Conditions: for viability, T/C: stronger effect = lower value
Text: DNA G-quadruplex Stabilizer Agents in Combinations in Complex Spheroids
A high-throughput screen of multi-cell type tumor spheroids was designed to identify active combinations of DNA G-quadruplex stabilizer agents and targeted small molecules. Complex spheroids include a stromal component modeled by human endothelial cells (HUVEC) and fibroblasts modeled by human mesenchymal stem cells (MSCs). The concentration ranges selected for each drug and investigational agent were based upon clinically achievable concentrations if the clinical Cmax of the agent was known.
Compounds. The drugs and investigational agents: pidnarulex (CX-5461; NSC782164), APTO-253 (NSC789042), BRACO-19 (NSC847499), peposertib (NSC802822), ceralasertib (NSC780249), elimusertib (NSC800525), camonsertib (NSC841442), AZD-1390 (NSC803789), olaparib (NSC753686), talazoparib (NSC767125), ART-558 (NSC835418), sotorasib (NSC818433), MRTX-1133 (NSC836407), SN-38 (NSC673596), topotecan (NSC609699), etoposide (NSC141540), doxorubicin (NSC123127), gemcitabine (NSC613327), 5-fluorouracil (NSC19893), paclitaxel (NSC125973), vemurafenib (NSC761431), panobinostat (NSC761190), R-306465 (JNJ-16241199; NSC773264), adavosertib (NSC754352), TP-3654 (NSC805149), carboplatin (NSC241240), KSQ-4279 (NSC840948), and staurosporine (NSC755774) were obtained from the National Cancer Institute (NCI) Developmental Therapeutics Program Chemical Repository (34). The FDA-approved anticancer drug set is available from the NCI Developmental Therapeutics Program. […] The stock solutions were prepared in dimethyl sulfoxide (DMSO, Sigma-Aldrich, St. Louis, MO, cat. D2650) at 800-fold the tested concentration and stored at -70 degrees C prior to their use. All drugs and investigational agents were tested over a range starting from a high concentration at or near the clinical Cmax and decreasing in half-log increments. If the clinical Cmax for an agent had not been determined, the highest concentration tested was 10 microM.
2.3 Cell Culture. All cells were maintained in an incubator at 37 degrees C and 5% CO2 with 95% humidity. The PDC lines were cultured according to standard operating procedures established by the NCI PDMR. All PDCs were thawed and cultured in Matrigel-coated flasks prepared with a working solution of 1X Ham's F-12 nutrient mix, without supplementation (Invitrogen, cat. 11765054), 100 U/mL penicillin-streptomycin (Invitrogen, cat. 15140122), and 2.5% Matrigel (Corning Inc., cat. 354248) for the first three passages. The 857933-349-R-J2-PDC line was cultured in 6C/Colon 1B media, which includes advanced DMEM/F-12 (Thermo Fisher Scientific, cat. 12634028), 10 mM HEPES (Thermo Fisher Scientific, cat. 15630080), 1X GlutaMAX supplement (Thermo Fisher Scientific, cat. 35050061), 0.1 mg/mL primocin (InvivoGen, cat. ant-pm-2), 10% defined fetal bovine serum, heat inactivated (HyClone Laboratories Inc., cat. SH30070.03HI), 50% L-WRN conditioned media (ATCC, cat. CRL-3276), 1.25 mM N-Acetyl-L-cysteine (Sigma-Aldrich, cat. A9165), 10 mM nicotinamide (Sigma-Aldrich, cat. N0636), 1X B-27 supplement (Thermo Fisher Scientific, cat. 17504044), 1X N-2 supplement (Thermo Fisher Scientific, cat. 17502048), 10 microM Y-27632 dihydrochloride (Tocris Bioscience, cat. 1254), and 50 ng/mL human EGF recombinant protein (Thermo Fisher Scientific, cat. PHG0311). The 485176-168-R4-J1-PDC line was cultured in Panc media, which includes all 6C/Colon 1B media components plus 100 ng/mL human FGF-10 (Thermo Fisher Scientific, cat. 100-26), 500 nM SB-431542 (Selleckchem, cat. S1067), and gastrin (Tocris, cat. 3006).
[…]
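Further: spheroids exposed to drugs for 7 days before viability reading.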

Row | IC50 (curve of compound) | IC50 (compound alone, run of 04/16/2024) | IC50 (compound alone, run of 04/22/2024) | SMILES | viability, T/C (compound 0.0316 µM) | viability, T/C (compound 0.1 µM) | viability, T/C (compound 0.316 µM) | viability, T/C (compound 1 µM) | viability, T/C (compound 3.16 µM) | viability, T/C (compound 10 µM) | viability, T/C (compound 0.000999 µM) | viability, T/C (compound 0.00316 µM) | viability, T/C (compound 0.00999 µM) | viability, T/C (compound 0.0999 µM)
1 | 5480 nM and 4380 nM and > 10000 nM | – | – | COc1cc(C2c3cc4c(cc3C(OC3OC5COC(C)OC5C(O)C3O)C3COC(=O)C23)OCO4)cc(OC)c1O (stereo unspecified) | 107% and 103% (2×) | 87% and 88.9% and 88.6% | 87.5% and 92% and 89.4% | 60.7% and 62.7% and 57.5% | 58.4% and 54.6% and 68.8% | 43.3% and 45.5% and 49.7% | – | – | – | –
2 | > 10000 nM and 9830 nM | – | – | COc1ccc([C@@H](O)c2cc(-c3ncnc4cc(N5CCOCC5)ccc34)c(F)cc2Cl)nn1 | 102% and 104% and 98.4% | 96.8% and 88% and 99.3% | 89.7% and 79.9% and 93.3% | 77.9% and 79.6% and 88.5% | 66.9% and 63.6% and 80% | 51% and 47.4% and 51.9% | – | – | – | –
3 | 1060 nM and 723 nM and 1130 nM | – | – | COc1cccc2c1C(=O)c1c(O)c3c(c(O)c1C2=O)CC(O)(C(=O)CO)CC3OC1CC(N)C(O)C(C)O1 (stereo unspecified) | 93% and 105% and 97.4% | 74.8% and 74.5% and 88.6% | 63.1% and 58% and 65.8% | 58.1% and 54.2% and 56.5% | 29.4% and 28.7% and 29.6% | 4.46% and 3.41% and 4.53% | – | – | – | –
4 | > 10000 nM and 1580 nM | – | – | COc1ncnc(C2CC2)c1-c1ncc2cnn(Cc3ccc(-c4nc(C(F)(F)F)cn4C(C)C)cc3)c2n1 | 98.6% and 108% and 92.8% | 105% and 94.8% and 99.3% | 97.8% and 85.6% and 98.5% | 100% and 65.5% and 81.5% | 99.2% and 28.8% and 94.3% | – | – | – | – | –
5 | – | > 10000 nM | > 10000 nM | Cc1[nH]c2ccc(F)cc2c1-c1nc2c3cccnc3c3ncccc3c2[nH]1 | 102% [middle of 12 runs] | 102% [middle of 12 runs] | 101% [middle of 12 runs] | 101% [middle of 12 runs] | 93.6% [middle of 12 runs] | 85.7% [middle of 12 runs] | – | – | – | –
6 | > 316 nM and 33.7 nM and 49.9 nM | – | – | Cc1[nH]c2ccccc2c1CCNCc1ccc(/C=C/C(=O)NO)cc1 | 96.4% and 54% and 57.8% | – | – | – | – | – | 101% and 103% and 95.3% | 90.3% and 84.7% and 95.6% | 96.9% and 70% and 80.2% | 101% and 27.6% and 35.7%
7 | > 10000 nM | – | – | Cc1cccc(N(C)C(=O)C2C(O)CCN2c2nc(C)cc(C(F)(F)F)c2C#N)c1 (stereo unspecified) | 113% and 94.7% and 106% | 103% and 98.2% and 94.6% | 95.1% and 106% and 98.1% | 101% and 98.4% and 112% | 89.7% and 108% and 114% | 91.4% and 96.3% and 101% | – | – | – | –
8 | – | – | – | Cc1cnc(CNC(=O)c2c(=O)c3ccc(N4CCCN(C)CC4)nc3n3c2sc2ccccc23)cn1 | 99% [middle of 12 runs] | 93.1% [middle of 12 runs] | 80.5% [middle of 12 runs] | 68% [middle of 12 runs] | 56.4% [middle of 12 runs] | 47.9% [middle of 12 runs] | – | – | – | –
9 | > 316 nM | – | – | Cn1ncnc1[C@H]1c2n[nH]c(=O)c3cc(F)cc(c23)N[C@@H]1c1ccc(F)cc1 | 94.5% and 86.7% and 93.1% | – | 92.8% and 88% and 76.6% | – | – | – | 92.8% and 91% and 93.5% | 93.2% and 98.2% and 100% | 93.6% and 94% and 101% | 89.3% and 80.8% and 106%
10 | < 31.6 nM and 35.4 nM and 168 nM | – | – | Nc1ccn(C2OC(CO)C(O)C2(F)F)c(=O)n1 (stereo unspecified) | 53.5% and 48% and 59.9% | 35.8% and 49.4% and 43.2% | 45% and 45.2% and 42.6% | 42.5% and 40.8% and 52% | 42.5% and 38.6% and 49.9% | 33.4% and 33.3% and 40.1% | – | – | – | –
11 | < 31.6 nM and 117 nM and 121 nM | – | – | O=C(NO)c1cnc(N2CCN(S(=O)(=O)c3ccc4ccccc4c3)CC2)nc1 | 39.6% and 75% and 74.9% | 25.7% and 56.3% and 57.3% | 26.8% and 8.85% and 14% | – | – | – | – | – | – | –
12 | > 10000 nM | – | – | O=C(c1cc(Cc2n[nH]c(=O)c3ccccc23)ccc1F)N1CCN(C(=O)C2CC2)CC1 | 102% and 96.8% and 103% | 95.1% and 97.1% and 87.4% | 87.9% and 88.9% and 100% | 89.7% and 89.3% and 95.3% | 92.5% and 79.6% and 86.6% | 68.4% and 67.2% and 66.9% | – | – | – | –
13 | > 10000 nM | – | – | O=c1[nH]cc(F)c(=O)[nH]1 | 95.6% and 102% and 106% | 105% and 100% and 94.9% | 105% (2×) and 107% | 98.4% and 114% and 99.3% | 94.5% and 97.5% and 97.7% | 97.2% and 97.8% and 93.8% | – | – | – | –
